In publication PMC7642680, “The Nontypeable Haemophilus influenzae Major Adhesin Hia Is a Dual-Function Lectin That Binds to Human-Specific Respiratory Tract Sialic Acid Glycan Receptors” (mBio, 2020):
Where two headings read alike, the source gives them in different places.

Experiments:
[1] = target: T1, Hia (full-length, expressed on E. coli BL21) (Haemophilus influenzae, UniProt Q8GM79); assay: SPR, Hia-expressing BL21 cells immobilised (Biacore C1 chip); assay type: cell-based; settings: 1x PBS pH 7.4; single-cycle kinetics; whole cells
T1 construct: trimeric autotransporter

[2] = target: Hia (full-length, expressed on E. coli BL21) (Haemophilus influenzae, UniProt Q8GM79, D618K); settings: 1x PBS pH 7.4, whole cells
Text: (§1) SPR, Hia-expressing BL21 cells immobilised (Biacore C1 chip) on Hia (full-length, expressed on E. coli BL21)

[3] = target: T2, Hia (full-length, expressed on E. coli BL21) (Haemophilus influenzae, UniProt Q8GM79, A619R); settings: read-out: 2-3 SLN-Ac; 1x PBS pH 7.4; whole cells
Text: as §1

[4] = target: T2, Hia (full-length, expressed on E. coli BL21); settings: read-out: NB, OneStep injection at 10 μM, whole cells
Text: SPR, OneStep injection, Hia-expressing BL21 cells on Hia (full-length, expressed on E. coli BL21)

[5] = target: Hia BD1 (binding domain 1) (Haemophilus influenzae, UniProt Q8GM79); assay: SPR, purified BD1 immobilised (Biacore CM5 amine capture); settings: 1x PBS pH 7.4; single-cycle kinetics

CC(=O)N[C@H]1C(O)O[C@H](CO)[C@@H](O[C@@H]2O[C@H](CO)[C@H](O)[C@H](O[C@@]3(C(=O)O)C[C@H](O)[C@@H](NC(=O)CO)[C@H]([C@H](O)[C@H](O)CO)O3)[C@H]2O)[C@@H]1O (stereo partly shown) [2-3 SLN-Gc]
Kd [1]: 10.1 ± 0.32 µM

CC(=O)N[C@H]1[C@H]([C@H](O)[C@H](O)CO)O[C@@](O[C@H]2[C@@H](O)[C@@H](CO)O[C@@H](O[C@H]3[C@H](O)[C@@H](NC(C)=O)C(O)O[C@@H]3CO)[C@@H]2O)(C(=O)O)C[C@@H]1O (stereo partly shown) [2-3 SLN-Ac]
Kd ([2]; read-out: 2-3 SLN-Ac): 0.842 ± 0.178 µM
Kd [3]: 3.04 ± 0.7 µM
Kd [1]: 2.03 ± 0.443 µM

CC(=O)N[C@H]1[C@H](O[C@H]2[C@@H](O)[C@@H](CO)O[C@@H](O[C@H]3[C@H](O)[C@@H](O)C(O)O[C@@H]3CO)[C@@H]2O)O[C@H](CO)[C@@H](O[C@@H]2O[C@H](CO)[C@H](O)[C@H](O[C@@]3(C(=O)O)C[C@H](O)[C@@H](NC(=O)CO)[C@H]([C@H](O)[C@H](O)CO)O3)[C@H]2O)[C@@H]1O (stereo partly shown) [2-3 Gc-SLNnT]
Kd [1]: 5.44 ± 1.11 µM

CC(=O)N[C@H]1[C@H](O[C@H]2[C@@H](O)[C@@H](CO)O[C@@H](O[C@H]3[C@H](O)[C@@H](O)C(O)O[C@@H]3CO)[C@@H]2O)O[C@H](CO)[C@@H](O[C@@H]2O[C@H](CO)[C@H](O)[C@H](O[C@@]3(C(=O)O)C[C@H](O)[C@@H](NC(C)=O)[C@H]([C@H](O)[C@H](O)CO)O3)[C@H]2O)[C@@H]1O (stereo partly shown) [2-3 Ac-SLNnT]
Kd [1]: 2.03 ± 1.49 µM

CC(=O)N[C@H]1[C@H]([C@H](O)[C@H](O)CO)O[C@](OC[C@H]2O[C@@H](O[C@H]3[C@H](O)[C@@H](NC(C)=O)C(O)O[C@@H]3CO)[C@H](O)[C@@H](O)[C@H]2O)(C(=O)O)C[C@@H]1O (stereo partly shown) [2-6 SLN-Ac]
Kd ([2]; read-out: 2-6 SLN-Ac): 0.021 ± 0.001 µM
Kd [1]: 0.185 ± 0.0599 µM
Kd [4]: > 10 µM
Kd [5]: 0.0649 ± 0.0056 µM
